One series concerns LSD-trained rats. As to conditions: even at 20× of the full active dose of LSD; cited from earlier work.
A further series relates to 5-HT2A. As to conditions: cited from earlier work.
Series [1] in a line: Chemical stability under basic and acidic conditions (HPLC MS). Format: physicochemical. The protocol:
General preparation and equipment information: NMR was performed on a Bruker NMR (^1H: 300 MHz and ^19F: 282 MHz) at ambient temperature. Reaction controls were performed by silica gel TLC (F254; UV detection) and HPLC UV & MS (Agilent 1100, UV at 210 nm and 313 nm, Waters SQD, ESI+ mode) under basic as well as acidic conditions (solvents: A: either 0.02% NH4OH in water or 0.05% TFA in water, B: acetonitrile, gradients from 5% to 95% B, reversed phase C18 HPLC column). All reactions, workups, drying steps, and storing were performed under exclusion of daylight and of electric light such as neon lighting or light bulbs containing wavelengths of the blue and/or UV spectrum. Working was performed in either light-excluding lab ware or under orange to red light (UV free LED). This helps to prevent decompositions of the compounds. Further on, reactions und some purifications can be performed under protecting gas such as Nitrogen or Argon to further protect the compounds from decompositions. Purifications were performed by using silica gel column chromatography and organic solvents such as mixtures of an alcohol (MeOH or EtOH) and dichloromethane, and in some cases, 0.1% to 1% of NH4OH 25% or 0.1% to 1% NEt3 was added. In a similar way, preparative TLC (silica gel) using the aforementioned solvents was applied as well. Working safety: a suitable personal protecting ware common to lab works and fume hoods with a movable glass window were used. Possible contaminations on e.g., gloves or surfaces can quickly be detected by having a long-wave UV lamp (e.g., 366 nm) at hands, preventing further distribution of active materials. Typically, compounds bearing an intact lysergic acid amide substructure, show a strong blueish fluorescence even in trace amounts. Quick deactivation of the potential central effects of these compounds can be performed by using, e.g., a mixture of bleach and diluted alcohol.
9,10-Didehydro-N-ethenyl-N-ethyl-6-methylergoline-8R-carboxamide (TRALA-12), 21. […]

The conditions of series [2]: 5R,8S epimer; cited from earlier work.
Series [3] is described as follows: Microsomal assays: stability in pooled human liver microsomes, LC-MS/MS. Format: in vitro ADME. Conditions: 10 nM; for microsomal metabolism compared with LSD: incubations over 4 hours. From the text:
Given its fast metabolism, it is likely not active orally but is a candidate for intravenous administration in particular as an infusion and expected to then produce short-lasting or also maintained effects that can rapidly be terminated upon stopping the infusion. […] However, it is important to note that in addition to the metabolic profile, other factors such as 5-HT2A receptor activity are important to consider when choosing promising drug candidates for therapeutic applications. In addition, in vivo experiments are necessary further assessing the clinical pharmacokinetics of these substances.
Microsomal assays: The objective of this experiment was the investigation of the microsomal stability of 10 novel lysergamides (FIGS. 13A-13J) in order to make predictions about whether any of the derivatives may be clinically faster metabolized than lysergic acid diethylamide (LSD). The test substances were incubated with human liver microsomes for 4 hours and the metabolic degradation was then measured by liquid chromatography-tandem mass spectrometry (LC-MS/MS). In brief, LSD and the derivatives (10 nM) were incubated in the presence of pooled human liver microsomes for 4 hours. The microsomal reaction mixture contained 464.5 μL phosphate-buffered saline, 25 μL nicotinamide adenine dinucleotide phosphate (NADPH) solution A (1:20 dilution, #451220, lot: 0344003; Corning Life Sciences B.V) and 5 μL Solution B (1:100 dilution, #451200, lot: 0342002; Corning Life Sciences B.V), 5 μL liver microsomes (150 donors, 20 mg/mL, #452117, lot: 38296; Corning Life Sciences B.V., Amsterdam, The Netherlands), and 0.5 μL test drugs (10 μM). Samples (50 μL) were taken 2 minutes prior to microsomal incubation (t0) and 0.5, 1, 2, 3, and 4 hours after initiation of the microsomal reaction. A total of five assays were performed per substance. The amount of the test substances (peak area) exposed to human liver microsomes for 4 hours was compared relative to a concentration of 10 nM (t0, 100% peak area). Linear regression slopes were plotted to compare the degradation of the derivatives and LSD. None of the TRALA derivatives were metabolized to LSD (data not shown).
On the technique in general: Liver microsomes are vesicles of endoplasmic reticulum, rich in cytochrome P450 enzymes.

The conditions of series [4]: humans; psilocin: unconjugated, average; cited from earlier work.

These results are taken from patent publication US20230414583A1, “LYSERGIC ACID DERIVATIVES WITH MODIFIED LSD-LIKE ACTION” (Mind Medicine, Inc., priority 2022, published 2023).

For the compound `CCN(CC)C(=O)[C@@H]1C=C2c3cccc4[nH]cc(c34)C[C@H]2NC1` [6-Nor-LSD, 9,10-Didehydro-N,N-diethylergoline-8R-carboxamide], in the series on LSD-trained rats, the “ability to substitute in LSD-trained rats” value is “loss of its 5-HT2A binding affinity (factor 30) and the ability to substitute in LSD-trained rats”. For the same compound, the “binding to 5-HT2A in more recent binding assays” value with 5-HT2A (Luethi et al., 2019) is given as “high-potency binding to 5-HT2A”. In addition, the “loss of 5-HT2A binding affinity on N6-demethylation of LSD” value in the series on 5-HT2A (relative to LSD (Hoffmann, 1987)) is recorded as 30 factor. For the compound `CCN(C=C(F)F)C(=O)[C@@H]1C=C2c3cccc4[nH]cc(c34)C[C@H]2N(C)C1` [Compound 2m, 9,10-Didehydro-N-(2,2-difluoroethenyl)-N-ethyl-6-methylergoline-8R-carboxamide], the “chemical stability, basic conditions” value in series [1] (hydrolyzed sample stored at ambient temperature overnight) is “remained intact”. In series [1] (hydrolyzed sample with excess tartaric acid, stored for 24h), the “chemical stability, acidic conditions” value is “the same product distribution as after initial hydrolysis of the reaction”. As for `CCN(CC)C(=O)[C@H]1C=C2c3cccc4[nH]cc(c34)C[C@H]2N(C)C1` [iso-LSD], the psychoactivity in humans result in series [2] was “inactive up to several milligrams”. Regarding `C=C(F)CN1C[C@H](C(=O)N(CC)CC)C=C2c3cccc4[nH]cc(c34)C[C@H]21` [Compound 12c, 9,10-Didehydro-N,N-diethyl-6-(2-fluoro-1-propen-3-yl)ergoline-8R-carboxamide], the “microsomal metabolism compared with LSD” value in series [3] is given as “significantly faster metabolized than LSD”. For the compound `C#CCN(CC)C(=O)[C@@H]1C=C2c3cccc4[nH]cc(c34)C[C@H]2N(CCF)C1` [Compound 16a, 9,10-Didehydro-N-ethyl-N-propyn-3-yl-6-(2-fluoroethyl)ergoline-8R-carboxamide], the “microsomal metabolism compared with LSD” value in series [3] was “significantly faster metabolized than LSD”. Regarding `CCN(CC)C(=O)[C@@H]1C=C2c3cccc4[nH]cc(c34)C[C@H]2N(C)C1` [LSD, 9,10-Didehydro-N,N-diethyl-6-methylergoline-8R-carboxamide], the plasma half-life entry in series [4] is “approximately 4 hours”. Consider `C=CN(CC)C(=O)[C@@H]1C=C2c3cccc4[nH]cc(c34)C[C@H]2N(C)C1` [Compound 2l, 9,10-Didehydro-N-ethenyl-N-ethyl-6-methylergoline-8R-carboxamide], for which, in series [3], the “time after which the majority of substance was metabolized” value worked out at 30 min and the “microsomal metabolism compared with LSD” value was “significantly faster metabolized than LSD”. Also, in series [1] (0.02% NH4OH in water or 0.05% TFA in water / acetonitrile), the “stability against basic or acidic HPLC MS conditions” value was “stability against these conditions”. As to `C#CCN(CC)C(=O)[C@@H]1C=C2c3cccc4[nH]cc(c34)C[C@H]2N(CC(=C)F)C1` [Compound 16b, 9,10-Didehydro-N-ethyl-N-propyn-3-yl-6-(2-fluoro-1-propen-3-yl)ergoline-8R-carboxamide], the “microsomal metabolism compared with LSD” value in series [3] is on record as “significantly faster metabolized than LSD”.
